Assay results reported in PMC10157211, “Four new suomilides isolated from the cyanobacterium Nostoc sp. KVJ20 and proposal of their biosynthetic origin” (Frontiers in Microbiology, 2023).

Key:
[1] = Dissolution of isolated fractions in solvent; format: physicochemical
Description: Compounds 1–4 were isolated using mass-guided fractionation on preparative HPLC from 29.4 g dry mass of lyophilizated cyanobacteria from 10 L of culture. For the first purification step, the compounds were separated using a C18 reversed phase column. The collected fractions were reduced to dryness at 40°C in vacuo. […] The yields were: 1: 9.8 mg; 2: 4.1 mg; 3: 5.9 mg; 4: 2.6 mg.

[2] = test system: trypsin; conditions: ref Pluotno and Carmeli, 2005; cited from earlier work
Excerpt: (§1) Compounds 5 and 6 were originally isolated via bioassay guided purification using a serine-protease inhibition assay when they were discovered in 2005 ([Pluotno and Carmeli, 2005]). The two banyasides were reported to inhibit the catalytic activity of trypsin. As far as we know, anti-bacterial activity of suomilide have not been reported previously, and the Nostoc sp. strain it has been isolated from was reported as non-toxic. This complies with our results, as no activity could be detected for 1–4 against bacteria or cell lines at high concentrations. Suomilide A has recently been investigate ...

[3] = test system: trypsin-2; conditions: ref Ahmed et al., 2021; read-out: IC50 trypsin-2 inhibition; cited from earlier work
Excerpt: as §1

[4] = test system: cancer cell proliferation; conditions: ref Ahmed et al., 2021; cited from earlier work
Excerpt: as §1

[5] = test system: prostate cancer cells; conditions: concentration of 3.3 μM; ref Ahmed et al., 2021; cited from earlier work
Excerpt: as §1

[6] = test system: trypsin-3; conditions: ref Ahmed et al., 2021, cited from earlier work
Excerpt: as §1

[7] = test system: trypsin-1; conditions: ref Ahmed et al., 2021; read-out: IC50 trypsin-1 inhibition; cited from earlier work
Excerpt: as §1

## Suomilide B [Compound 1]
[1]; dried HPLC fraction dissolved in DMSO, after extensive shaking
  solubility in DMSO (qualitative): well
[1]; dried HPLC fraction dissolved in methanol
  solubility in methanol (qualitative): dissolved poorly

## banyaside A [Compound 5]
[2]
  inhibition of the catalytic activity of trypsin: inhibit

## banyaside B [Compound 6]
[2]
  inhibition of the catalytic activity of trypsin: inhibit

## suomilide [Suomilide A]
[3]
  IC50: 4.7 nM
[4]
  effect on cancer cell proliferation: no effect
[5]
  inhibition of invasion of prostate cancer cells: inhibit the invasion
[6]; read-out: IC50 trypsin-3 inhibition
  IC50: 11.5 nM
[6]; surface plasmon resonance spectroscopy
  residence time: 57 min
[7]
  IC50: 104 nM
